≈ marks a conversion by molar mass, not a printed value.
How the values were obtained:
Type in all cases: physicochemical
[1] = Hygroscopicity by DVS
Excerpt: Crystalline form HB is a hydrated form of (S)-3-amino-4-(5-(4-((5-chloro-3-fluoropyridin-2-yl)oxy)phenyl)-2H-tetrazol-2-yl)butanoic acid.

[2] = Stability in solvent: equilibration of Form HB with solvent, residue analysed by XRPD
Experimental: Equilibrations with solvent were carried out to investigate the relative stability of form HB in solvent. 50 mg of Form HB is equilibrated with 1 mL solvent for 24 h (or 7 days, or 28 days) in a water bath at 25° C. or for 7 days at 50° C. The solutions are filtered and dried for 10 minutes in air. The resulting solid is analyzed by XRPD.
Various solvent were investigated: acetone, acetonitrile, dichloromethane, dioxane, ethanol, heptane, methanol, THF, acetone/water mixtures from 10/90 to 90/10, acetonitrile/water mixtures from 10/90 to 90/10, dioxane/water mixtures from 10/90 to 90/10 and ethanol/water mixture from 10/90 to 90/10, tetrahydrofuran/water (50/50) and 1-propanol/water (70/30).

[3] = Solid state stability in bulk (HPLC degradation products, XRPD); conditions: test conditions 1-5: 1 week, tight or open container, room temperature to 80° C., up to 92% RH; listed as Modification HB
Experimental: The chemical and physical stability of form B and form HB was investigated, exposing the individual forms to high humidity at temperatures ranging from 25-80° C.
The degradation products were analyzed by HPLC and the sample was analyzed by XPRD to detect any changes to the solid state.

[4] = Physical stability: behavior under compression (XRPD); conditions: 5 minutes at 10 tons, hydraulic press, 13 mm tablets
Experimental: Behavior under compression: The physical stability of crystalline Form HB was also evaluated. 300 mf of the crystalline form HB was compressed for 5 minutes at 10 tons with a hydraulic press (diameter of the tablets 13 mm). The sample was then characterized by XRPD to detect any change in the solid state.

[5] = Physical stability: behavior under grinding (XRPD); conditions: ground manually in a mortar for 3 minutes
Experimental: Behavior under grinding: The physical stability of crystalline form Form HB was also evaluated. 50 mg of the crystalline form B or HB were ground manually in a mortar for 3 minutes.

[6] = Physical stability: granulation simulation experiment (XRPD and/or DSC); conditions: ethanol or water as granulation solvent, 25° C.
Experimental: Behavior under granulation simulation experiment: The physical stability of crystalline forms HB was also evaluated in granulation simulation experiments. In these experiments granulating solvent was added dropwise to the crystalline form HB until the solid is wetted sufficiently. The mixture was then vortexed between each addition at 25° C. The mixture was then dried under vacuum. The crystallinity of the material (post-grinding) was re-evaluated by XRPD and/or DSC. The granulating solvent was water or ethanol.

[7] = Solubility in aqueous buffers and bio-relevant media
[8] = Stability in solvent: equilibration of Form HB with solvent, residue analysed by XRPD; remark: listed apart in the source

With `N[C@@H](CC(=O)O)Cn1nnc(-c2ccc(Oc3ncc(Cl)cc3F)cc2)n1` [Form HB, (S)-3-amino-4-(5-(4-((5-chloro-3-fluoropyridin-2-yl)oxy)phenyl)-2H-tetrazol-2-yl)butanoic acid] the Rehydration ([1]; at 10% RH and above 60% RH) was “Stepwise rehydration to HB”, the “Behaviour at low humidity” value ([1]; below 10% RH) was “loses their water” and the Hygroscopicity ([1]; between 10-90% RH) was “not hygroscopic”. For the same compound, the “Solid form after equilibration with solvent” value (“Solid form after equilibration” below) ([2]; 25° C., 7 days or 28 days, a variety of solvent) was “no change”, the “Solid form after equilibration” value ([2]; 25° C., 7 days or 28 days, acetone, dioxane, ethanol, methanol and THF) was “converts to amorphous material or gel like material” and the Solid state residue ([2]; 50° C., 7 days, 1,4-Dioxane) was “Amorphous”. The Solid state residue ([2]; 50° C., 7 days, 1-Butanol) was “Amorphous”, the Solid state residue ([2]; 50° C., 7 days, Acetone) was “Amorphous” and the Solid state residue ([2]; 50° C., 7 days, Acetone/water 50/50) was “Form HB”. The Solid state residue ([2]; 50° C., 7 days, Acetone/water 90/10) was “Form HB”, the Solid state residue ([2]; 50° C., 7 days, Acetonitrile) was “Amorphous” and the Solid state residue ([2]; 50° C., 7 days, Anisole) was “Amorphous”. The Solid state residue ([2]; 50° C., 7 days, DMSO) was “Amorphous”, the Solid state residue ([2]; 50° C., 7 days, DMSO/methanol 50/50) was “Amorphous” and the Solid state residue ([2]; 50° C., 7 days, DMSO/water 50/50) was “Form HB”. The Solid state residue ([2]; 50° C., 7 days, DMSO/water 90/10) was “Amorphous”, the Solid state residue ([2]; 50° C., 7 days, Dichloromethane) was “Amorphous” and the Solid state residue ([2]; 50° C., 7 days, Ethanol) was “Amorphous”. The Solid state residue ([2]; 50° C., 7 days, Ethyl acetate) was “Amorphous”, the Solid state residue ([2]; 50° C., 7 days, Isopropanol) was “Amorphous” and the Solid state residue ([2]; 50° C., 7 days, Isopropyl acetate) was “Amorphous”. For the same compound, the Solid state residue ([2]; 50° C., 7 days, MEK) was “Amorphous”, the Solid state residue ([2]; 50° C., 7 days, MIBK) was “Amorphous” and the Solid state residue ([2]; 50° C., 7 days, MTBE) was “Amorphous”. For the same compound, the Solid state residue ([2]; 50° C., 7 days, Methanol) was “transformed into Form B”, the Solid state residue ([2]; 50° C., 7 days, NMP) was “Amorphous” and the Solid state residue ([2]; 50° C., 7 days, THF) was “Amorphous”. For the same compound, the Solid state residue ([2]; 50° C., 7 days, THF/acetone 50/50) was “Amorphous”, the Solid state residue ([2]; 50° C., 7 days, THF/methanol 50/50) was “Amorphous” and the Solid state residue ([2]; 50° C., 7 days, THF/water 50/50) was “Form HB”. For the same compound, the Solid state residue ([2]; 50° C., 7 days, Toluene) was “Amorphous”, the Solid state residue ([2]; 50° C., 7 days, Water) was “Form HB” and the “Solid form after equilibration” value ([2]; 50° C., 7 days, many solvents) was “became amorphous”. For the same compound, the Solid state residue ([2]; 50° C., 7 days, n-Heptane) was “mixture HB + B”, the “Chemical and physical stability in bulk” value [3] was “stable in all conditions except at 80 °C without humidity” and the “Change of crystalline form by XRPD under compression” value [4] was “No change of crystalline form”. The “Change by XRPD under grinding” value [5] was “did not result in any change”, the “Form change by XRPD upon granulation” value [6] was “no form change” and the solubility ([7]; FaSSIF (pH=6.5)) was 0.09 mg/mL (≈ 229 µM). The solubility ([7]; FeSSIF (pH=5.8)) was 0.009 mg/mL (≈ 22.9 µM), the solubility ([7]; simulated gastric fluid (SGF of pH=2)) was 0.75 mg/mL (≈ 1910 µM) and the “Form conversion through slurry” value ([8]; high temperature slurry at 80° C. in aqueous solvent mixtures) was “Modification B can be obtained”. The “Form conversion through slurry” value ([8]; hot or boiling methanol, about 50° C. to about 65° C.) was “transforms into anhydrous Modification B”.

— patent publication US11993582B2, “Crystalline forms of a LTA4H inhibitor” (Novartis AG, priority 2018, dated 2024)
